Measurements published in paper PMC7355937, “Structure-Based Discovery of Dual-Target Hits for Acetylcholinesterase and the α7 Nicotinic Acetylcholine Receptors: In Silico Studies and In Vitro Confirmation” (Molecules, 2020).
Values joined by “and” are separate entries in the source; they are usually repeats but may differ in a detail not shown here. Equal entries are not always repeated. Where two headings read alike, the source gives them in different places.

What was measured:
human recombinant AChE = molecular target: T1, human recombinant AChE (Homo sapiens, UniProt P22303); test: biochemical; details: for AChE %Inhibition of supernatant (MeOH): poorly soluble compound, methanol supernatant tested, nominal 200 µM; for inhibition at 200 µM: compound soluble in MeOH
T1 construct: purchased Sigma-Aldrich Co. LLC C1682
T1 sequence (P22303 32-614): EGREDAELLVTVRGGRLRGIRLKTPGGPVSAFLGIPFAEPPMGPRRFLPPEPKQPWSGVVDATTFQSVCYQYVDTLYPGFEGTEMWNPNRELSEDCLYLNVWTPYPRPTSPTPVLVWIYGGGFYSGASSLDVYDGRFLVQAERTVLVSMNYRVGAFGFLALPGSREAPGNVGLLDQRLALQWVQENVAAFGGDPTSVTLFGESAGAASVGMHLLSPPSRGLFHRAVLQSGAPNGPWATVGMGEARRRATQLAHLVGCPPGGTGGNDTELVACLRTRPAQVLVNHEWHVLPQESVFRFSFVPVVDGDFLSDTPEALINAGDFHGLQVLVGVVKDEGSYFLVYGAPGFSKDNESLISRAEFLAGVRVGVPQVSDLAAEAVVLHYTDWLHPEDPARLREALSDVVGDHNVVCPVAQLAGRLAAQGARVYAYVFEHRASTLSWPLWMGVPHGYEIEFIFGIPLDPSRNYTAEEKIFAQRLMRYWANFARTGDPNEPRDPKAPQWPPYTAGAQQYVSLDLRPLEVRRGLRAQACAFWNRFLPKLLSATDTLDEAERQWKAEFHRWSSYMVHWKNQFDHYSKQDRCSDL
Description: For five poorly soluble compounds, the methanol supernatants were tested. Ellman’s colorimetric analysis is based on the breakdown of acetylthiocholine (ATCI) by AChE to thiocholine and acetic acid. Ellman’s reagent in turn reacts with the thiol group of thiocholine resulting in a yellow color indicating the extent of enzymatic activity. […] In vitro AChE inhibitory activity was studied using the colorimetric method of Ellman using human recombinant AChE enzyme. To a 96-well microplate, test solutions were applied along with 1 mg/mL bovine serum albumin, 0.5 mM 5,5-dithiobis-(2-nitro-benzoic acid), and 0.5 mM acetylthiocholine iodide. […] Experiments were conducted in triplicate.
(§1) Data analysis was performed as reported previously. […] During analysis, traces were baseline subtracted and responses to individual applications quantified as peak-current amplitudes. Statistical calculations were performed using GraphPad Prism 7 (GraphPad Software, GraphPad, San Diego, CA, USA). Activation of the α7 nAChR was calculated as a percentage of Emax response to ACh. For evaluation of the inhibitory activity, the percentage of remaining peak-current amplitudes relative to that of the AChcontrol (EC20) application was calculated. AChE inhibition data were analyzed using GraphPad Prism 7. Absorption readings from the AChE inhibition assay were plotted versus time and linear regression was performed. […] Data were fitted with the slope set to 1 and remaining current amplitude at infinitely high compound concentrations set to 0.

human α7 nAChR [1] = molecular target: T2, human α7 nAChR (Homo sapiens, UniProt P36544); test: α7 nAChR inhibition of ACh-evoked currents (antagonist test), two-electrode voltage-clamp electrophysiology in Xenopus oocytes; assay type: cell-based; details: -60 mV
T2 construct: expressed in transfected cells; host or cells: Xenopus laevis oocytes (cRNA injection)
T2 sequence (P36544 23-502): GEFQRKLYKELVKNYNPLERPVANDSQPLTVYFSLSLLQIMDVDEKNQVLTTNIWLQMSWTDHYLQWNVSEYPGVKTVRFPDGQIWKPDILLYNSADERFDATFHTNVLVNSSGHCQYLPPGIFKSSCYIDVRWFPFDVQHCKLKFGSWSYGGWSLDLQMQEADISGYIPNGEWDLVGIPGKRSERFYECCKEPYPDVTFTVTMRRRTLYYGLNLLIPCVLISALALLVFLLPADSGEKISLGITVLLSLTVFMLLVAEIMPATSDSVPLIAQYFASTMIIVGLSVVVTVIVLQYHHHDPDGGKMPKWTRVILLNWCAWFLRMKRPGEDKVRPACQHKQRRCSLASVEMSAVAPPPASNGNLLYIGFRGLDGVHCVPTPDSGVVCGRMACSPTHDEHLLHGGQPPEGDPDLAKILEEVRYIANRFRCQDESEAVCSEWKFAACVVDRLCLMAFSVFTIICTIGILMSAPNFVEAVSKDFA
Description: (§2) Compounds were tested for direct activation of the α7 nAChR in a 0.2–200 µM concentration range. Compounds displaying less than 1% direct activation were further evaluated at 100 µM for their ability to alter currents evoked by 30 µM ACh.
(§3) Xenopus laevis oocytes were obtained as described previously, briefly, ovary lobes were removed by surgical incision, sliced into small pieces and defolliculated by collagenase treatment. […] Stage V and VI oocytes were injected with a total of ~25 ng of cRNA encoding human α7 nAChR with RIC3 (in 5:1 ratio), a protein enhancing the expression of the receptor. Injected oocytes were incubated for 3–5 days at 18 °C in a saline solution (96 mM NaCl, 2 mM KCl, 1 mM MgCl2, 1.8 mM CaCl2, 5 mM HEPES (hemisodium, pH 7.4)) supplemented with 2.5 mM sodium pyruvate, 0.5 mM theophylline, and 50 µM gentamycin.
(§4) Electrophysiological recordings from Xenopus laevis oocytes were performed using the two-electrode voltage-clamp technique as described previously. Briefly, oocytes were placed in a custom-built recording chamber and continuously perfused with a saline solution. The saline solution contained 96 mM NaCl, 2 mM KCl, 1 mM MgCl2, 1.8 mM CaCl2, 5 mM HEPES (hemisodium, pH 7.4). Pipettes were backfilled with 3 M KCl and open-pipette resistances ranged from 0.3 to 1.5 MΩ when submerged in the saline solution. Oocytes were voltage clamped at a holding potential of −60 mV using an Axon Geneclamp 500B amplifier (Molecular Devices, LLC, San Jose, CA, USA). Rapid solution exchange in the oocyte vicinity (order of a few seconds) was ensured by application through a 1.5 mm diameter capillary tube placed approximately 2 mm from the oocyte as described previously. The solution flow rate through the capillary was 2.0 mL/min. […] Thereafter, test compounds in increasing concentration were applied (25 s), the maximal tested concentration was 200 µM. A wash period of at least 2 min was kept between each application. […] In these experiments, 10 and 100 µM concentration of a test compound was co-applied with 30 µM ACh. Peak current amplitudes were normalized with respect to the amplitude of current elicited by 3 mM or 30 µM ACh for the agonist and antagonist test, respectively. All experiments were conducted at least in triplicate.
as §1

human α7 nAChR [2] = molecular target: T2, human α7 nAChR; test: α7 nAChR direct activation (agonist test), two-electrode voltage-clamp electrophysiology in Xenopus oocytes; assay type: cell-based; details: for activation at 200 µM: read-out: α7 nAChR %Activation
Description: as §2, §3, §4, §1

α7 nAChR = details: cited from earlier work
[3] = 100 µM compound co-applied with 30 µM ACh, read-out: α7 nAChR %Inhibition
[4] = 200 µM, normalized to 3 mM ACh response, -60 mV
[5] = five to eight concentrations, read-out: AChE IC50

| Compound | inhibition at 100 µM (human α7 nAChR [1]; [3]) [%] | activation at 200 µM (human α7 nAChR [2]; [4]) [%] | inhibition at 200 µM (human recombinant AChE) [%] | IC50 (human recombinant AChE; [5]) [µM] | further results |
| --- | --- | --- | --- | --- | --- |
| O=C(Nc1cccc(CN2CCCC2)c1)C1=Cc2cc(Cl)ccc2OC1 [Compound 16] | 90.7 | 1 | – | – | AChE %Inhibition of supernatant (MeOH) (human recombinant AChE): 100% |
| CC(=O)c1cccc(NC(=O)c2ccc(CN3CCCCC3)cc2)c1 [Compound 14] | 60 | 0.3 | 100 | 1.1 | – |
| c1cc(-c2ccc(-c3ccc(CN4CCCC4)cn3)cc2)n[nH]1 [Compound 8] | 59 | 0.3 | – | – | AChE %Inhibition of supernatant (MeOH) (human recombinant AChE): 100% |
| O=C(Nc1cccc(CN2CCCCC2)c1)c1ccccc1F [Compound 10] | 85 | 0.3 | 90.8 | 11.3 | – |
| O=C(Nc1nc(CN2CCCCC2)cs1)c1cc(O)nc2ccccc12 [Ýmir-16 (21)] | – | 0.3 | 87.7 | 7.76 | IC50 (human recombinant AChE; read-out: AChE pIC50 ± SEM (converted)): 7.94 µM; α7 nAChR %Inhibition (human α7 nAChR [1]; 100 µM compound co-applied with 30 µM ACh): 97.3 ± 1%; inhibition at 100 µM (human α7 nAChR [1]; read-out: α7 nAChR %Inhibition, 100 µM compound co-applied with 30 µM ACh): 97% |
| CC(=O)c1cccc(NC(=O)c2ccc(CN3CCCCCC3)cc2)c1 [Compound 18] | 68.7 | 0.7 | 91.6 | 17.9 | – |
| O=C(Nc1ccc(CN2CCCCC2)cc1)c1ccc(Cl)cc1 [Compound 11] | 73.3 | 0.7 | – | – | AChE %Inhibition of supernatant (MeOH) (human recombinant AChE): 100% |
| CN(C(=O)Cc1ccsc1)[C@H]1CCC[C@H](N2CCCC2)[C@H]1O [Compound 17] | – | – | 22.9 | – | – |
| Cc1nnc2ncc(-c3ccc(C(C)N(C)C)cc3)cn12 (centres unmarked) [Ýmir-2 (7), N,N-dimethyl-1-(4-(3-methyl-[1,2,4]triazolo[4,3-a]pyrimidin-6-yl)phenyl)ethan-1-amine] | – | – | 98.4 | 2.58 | α7 nAChR %Activation (human α7 nAChR [2]; [4]): 7.0% and 7.0 ± 0.9%; activation at 200 µM (human α7 nAChR [2]): 7 ± 0.9% |
| O[C@@H]1c2ccc(-c3cccnc3)cc2OC[C@H]1N1CCCC1 [Compound 9] | 66.7 | 1 | – | – | AChE %Inhibition of supernatant (MeOH) (human recombinant AChE): 45.9 ± 3.8% |
| Nc1nc(-c2ccsc2)cc(N(Cc2ccccn2)Cc2ccccn2)n1 [Compound 44, N4,N4-bis[(pyridin-2-yl)methyl]-6-(thiophen-3-yl)pyrimidine-2,4-diamine] | – | – | – | – | α7-pEC50 (α7 nAChR): 6.3 |
| O=c1[nH]c2ccccc2c(=O)n1-c1ccc(CN2CCCC2)cc1 [Compound 12] | 81.7 | 0.3 | – | – | AChE %Inhibition of supernatant (MeOH) (human recombinant AChE): 63.7 ± 4.4% |
| CN(C)Cc1ccc(-c2ccc(N(C)C)nc2)nc1 [Compound 6] | 47.2 | 0.4 | 76.1 | 58.5 | – |
| Cc1cc(F)ccc1S(=O)(=O)NCc1ccc(CN2CCCC2)cc1 [Ýmir-14 (19)] | 96 | 0.7 | 100 | 1.32 | – |
| Cc1ccc2cc(NC(=O)NCCN3CCCC3)ccc2n1 [Ýmir-10 (15)] | – | – | 66.6 | 115 | α7 nAChR %Activation (human α7 nAChR [2]; [4]): 2.3% and 2.3 ± 0.4%; activation at 200 µM (human α7 nAChR [2]): 2.3 ± 0.4% |
| Cc1cccc(NC(=O)c2ccc(CN3CCCCCC3)cc2)c1C [Compound 13] | 68 | 0.7 | 82.5 | 30.2 | – |
| C[C@H]1CCCN(Cc2ccc(NC(=O)CCc3ccc(C#N)cc3)cc2)C1 [Compound 20] | 94.3 | 0.3 | 86 | 33.5 | – |
